Measurements taken from patent publication US12049615B2, “Systems and methods for electronically and optically monitoring biological samples” (Agilent Technologies, Inc., priority 2020, dated 2024).
Entries after “also recorded” stand apart in the source; their conditions may differ. Where a SMILES comes first, the peptide text is derived from it. The star is where a group is joined. Cbz = O=C(OCc1ccccc1)*

What was measured:
A549-Blue cells [1] = assay: Real-time cell-substrate impedance monitoring of drug-induced apoptosis; assay type: cell-based; conditions: for change of impedance signal after drug addition: addition at the 25-hour time point, time- and dose-dependent
Method: (§1) Cell maintenance and assays were conducted at 37° C./5% CO2 in F-12K media (ATCC; catalog number 30-2004) containing 10% heat-inactivated FBS (Corning, catalog number 35016CV). While impedance was measured every 15 minutes, images were acquired once per hour. In each well, four fields of view were captured for each channel (brightfield, red, green, and blue). Exposure times were as follows: red (300 ms), green (300 ms), and blue (80 ms). The A549-Blue cell line, which stably expresses nuclear-localized blue fluorescent protein (BFP), was produced by transducing A549 cells (ATCC; catalog number CCL-185) with Agilent eLenti Blue (p/n 8711012) at a multiplicity of infection of 1. From day 2 to day 11 postinfection, 1 μg/mL puromycin was included in the growth medium to select for transductants. For real-time visualization of activated caspase 3, Agilent eCaspase 3 NucView 488 (p/n 8711005) was included in growth medium at a concentration of 5 μm. For real-time visualization of translocated phosphatidylserine, Agilent eAnnexin V Red (p/n 8711007) was included in growth medium at a concentration of 0.25 μg/mL. Agilent E-Plate VIEW microplates (p/n 00300601030) were also used. MG132 (Tocris; catalog number 1748/5) and staurosporine (Calbiochem; catalog number 569396) stocks were dissolved in DMSO.
A549-Blue cells (described above) were seeded into an E-PATE VIEW at a density of 10,000 cells/well. As the cells proliferate over the first day, they occupy an expanding surface area on the biosensor array, causing the impedance signal to rise steadily (FIG. 11A and FIG. 11B). If left untreated, the cells grow to confluence, saturating the biosensor array and giving a plateaued impedance signal. […] The kinetics of these drug-induced responses, and the overall shape of the impedance traces, are distinct for each compound. […] Although MG132 and staurosporine both induce apoptosis, they elicit distinct cellular behaviors en route to cell death, which becomes strikingly clear when real-time impedance is multiplexed with live cell imaging.

A549-Blue cells [2] = assay: Live cell imaging (blue nuclei, % confluence, caspase 3, annexin V) of drug-treated cells; assay type: cell-based; conditions: for total number of blue nuclei: four highest concentrations (MG132 1.9, 5.5, 16.7, 50 μm; staurosporine 0.125-1 μm, over the subsequent 60 hours)
Method: as §1
Although A549-Blue cells already cover most of the well bottom by the 26-hour time point, in the absence of drug, they continue proliferating for another 50 hours, packing cells together at higher density (FIG. 12A). Consistent with this, the impedance signal plateaus at roughly 30 hours while the total number of blue nuclei continues to increase until ˜80 hours (FIG. 12A). Blue nuclei count is Obtained by an image processing algorithm to count the number of blue objects in the blue-fluorescent image. Each blue nuclei nucleus corresponds to an A549 cell as it was transduced to expresses nuclear-localized blue fluorescent protein. As such the number of blue nuclei in a well correspond to the number of viable A549-blue cells present in the well. […] Although, over time, these nuclei shrink in size and begin clustering together, they largely remain intact, explaining why the number of blue nuclei stays fairly constant in FIG. 12C. The above coupling of impedance with imaging clearly provides a more complete and nuanced understanding of drug-mediated A549 cell killing than would be possible using either technique alone. Moving beyond simple cell counts, we next probed the kinetics of biochemical phenomena that are specific to the apoptotic killing pathway.
Along with impedance and blue nuclei counts, the induction of apoptosis by MG132 was also tracked by percent cellular confluence, caspase 3 activation (causing cells to fluoresce green), and phosphatidylserine translocation (causing cells to fluoresce red). […] The bold white arrows in the panels for the 20- and 40-hour time points highlight large membrane blebs that contain phosphatidylserine in their outer leaflet.
Next, the continuous response of A549-Blue cells to MG132 was plotted using each of the image-based readouts. Blue nuclei counts (FIG. 14A) (FIG. 14A) display a dependency on drug concentration that closely reflects the impedance responses seen in (FIG. 11A), Despite the extensive apoptotic response, throughout the course of this assay the % cellular confluence never drops below 50% (FIG. 14B), where the cell confluence number is derived from bright field images through image processing algorithms. This is consistent with the fact that, unlike in vivo contexts, where apoptotic cells and their debris are removed through phagocytosis, in vitro, a large percentage of apoptotic cells continue to occupy the well bottom (FIG. 12B). […] Considering the number of cells that were seeded, their rate of growth, and the percentage of cells that display apoptotic markers (FIG. 13), the output numbers in FIGS. 14A-C are consistent with expectations. […]

A549-Blue cells [3] = assay: EC50 from dose response curves of impedance and image-based readouts (area under the curve); conditions: area under the curve from drug addition to 60 hours after; four readouts (normalized cell index, green cell number, red cell number, blue nuclei number); four-parameter logistic fit
Method: FIG. 16 provides a table and graphs showing the use of dose response curves to calculate EC50. Using real-time impedance (as represented by normalized cell index) data (FIG. 11A) and live cell imaging (green cell number, red cell number and blue nuclei number) data (FIGS. 14A-C), area under the curve was calculated, and is plotted here as a function of MG132 concentration. Data were fit to a four-parameter logistic equation to determine the EC50.
Using the impedance and image-based readouts presented in Examples II-IV, the EC50 for MG132 was calculated. The area under the curve, spanning from the time of drug addition to 60 hours after drug addition, was plotted as a function of MG132 concentration to yield the dose response curves seen in FIG. 16. The quality of the fitting for the four different readouts is quite good, with R2 values ranging from 0.96 to 0.98. The calculated EC50 values range from 0.86 to 3.0 μm, which is consistent with values reported in the literature. See Han, Y. H. et al. The Effect of MG132, a Proteasome Inhibitor on HeLa Cells in Relation to Cell Growth, Reactive Oxygen Species and GSH. Oncol. Rep. 2009, 22(1), 215-21.

Row | Structure (SMILES) | change of impedance signal after drug addition (A549-Blue cells [1]) | impedance signal at high concentrations (A549-Blue cells [1]; high concentrations of MG132 (FIG. 11A)) | number of caspase 3-activated cells exceeds number of phosphatidylserine translocated cells by (A549-Blue cells [2]; 50 μM MG132, 40 hours following the first 20 hours of drug treatment) | time at which the number of blue nuclei begins to decrease (A549-Blue cells [2]; after drug addition, 50 μM MG132 (FIG. 15), same time caspase 3 activation and phosphatidylserine translocation become detectable) [h] | number of caspase 3 positive (fluorescence green) objects (A549-Blue cells [2]; dependent on MG132 concentration (FIG. 14C)) | number of annexin V positive (fluorescent red) objects (A549-Blue cells [2]; dependent on MG132 concentration (FIG. 14D)) | total number of blue nuclei (A549-Blue cells [2]) | EC50 (A549-Blue cells [3]) [nM] | impedance response at the four highest concentrations (A549-Blue cells [1]; staurosporine 0.125, 0.250, 0.500, and 1 μm) | cell morphology by live cell imaging (A549-Blue cells [2]; one hour after staurosporine addition)
1 | CC(C)C[C@@H](C=O)NC(=O)[C@H](CC(C)C)NC(=O)[C@H](CC(C)C)NC(=O)OCc1ccccc1 [MG132] (Cbz-Leu-Leu-Leu-aldehyde) | marked decrease | drop to zero; also recorded: dropped to zero | approximately 20% | ~10 | increase over time | increase over time | decreases over time | 860 to 3000 |  | 
2 | CN[C@@H]1C[C@H]2O[C@@](C)([C@@H]1OC)n1c3ccccc3c3c4c(c5c6ccccc6n2c5c31)C(=O)NC4 [staurosporine] | marked decrease |  |  |  |  |  | modest impact |  | plummet within the first few minutes | shrunk so severely that their cytoplasm is barely visible; also recorded: massive cytoplasmic shrinkage
